Assay results taken from patent publication US20070117770A1, “Human ribosomal DNA (rDNA) and ribosomal RNA (rRNA) nucleic acids and uses thereof” (Cylene Pharmaceuticals, Inc., priority 2005, published 2007).

Experiments:
Assay in all cases: Protein kinase inhibition assay
Assay type in all cases: biochemical
[1] = target: Met(h) (Homo sapiens, UniProt P08581); details: read-out: percent residual activity of Met(h)
Description: (§1) Certain compounds were tested for activity in protein kinase inhibition assays. All substrates were dissolved and diluted to working stocks in de-ionized water, apart from histone H1 (10× working stock in 20 mM MOPS pH 7.0), PDKtide (10× working stock in 50 mM Tris pH 7.0) ATF2 (which is typically stored at a 20× working stock in 50 mM Tris pH 7.5, 150 mM NaCl, 0.1 mM EGTA, 0.03% Brij-35, 50% glycerol, 1 mM benzamidine, 0.2 mM PMSF and 0.1% R-mercaptoethanol), KKLNRTLSFAEPG (SEQ ID NO:203) and RRRLSFAEPG (SEQ ID NO:204) (50 mM HEPES pH 7.4) and GGEEEEYFELVKKKK (SEQ ID NO:205) (20 mM MOPS pH 7.0). All kinases were pre-diluted to a 10× working concentration prior to addition into the assay. The composition of the dilution buffer for each kinase is detailed below.
(§2) In a final reaction volume of 25 μl, Met (h) (5-10 mU) is incubated with 8 mM MOPS pH 7.0, 0.2 mM EDTA, 250 μM KKKSPGEYVNIEFG (SEQ ID NO:207), 10 mM MgAcetate and [y-33P-ATP] (specific activity approx. 500 cpm/pmol, concentration as required). The reaction is initiated by the addition of the MgATP mix. After incubation for 40 minutes at room temperature, the reaction is stopped by the addition of 5 μl of a 3% phosphoric acid solution. 10 μl of the reaction is then spotted onto a P30 filtermat and washed three times for 5 minutes in 75 mM phosphoric acid and once in methanol prior to a drying and scintillation counting.

[2] = target: IRR(h) (Homo sapiens, UniProt P14616); details: read-out: percent residual activity of IRR(h)
Description: as §1
as §2, with “25 μl, IRR (h) (5-10” for “25 μl, Met (h) (5-10”, “mM EDTA, 0.33 mg/ml myelin basic protein, 10 mM” for “mM EDTA, 250 μM KKKSPGEYVNIEFG (SEQ ID NO:207), 10 mM”, “MgAcetate and [gamma-33P-ATP] (specific activity” for “MgAcetate and [y-33P-ATP] (specific activity”, “prior to drying and” for “prior to a drying and”

[3] = target: Ron(h) (Homo sapiens, UniProt Q04912); details: read-out: percent residual activity of Ron(h)
Description: as §1
In a final reaction volume of 25 μl, Ron (h) (5-10 mU) is incubated with 8 mM MOPS pH 7.0, 0.2 mM EDTA, 250 μM KKSRGDYMTMQIG (SEQ ID NO:210), 10 mM MgAcetate and [gamma-33P-ATP] (specific activity approx. 500 cpm/pmol, concentration as required). The reaction is initiated by the addition of the MgATP mix. After incubation for 40 minutes at room temperature, the reaction is stopped by the addition of 5 μl of a 3% phosphoric acid solution. 10 μl of the reaction is then spotted onto a P30 filtermat and washed three times for 5 minutes in 75 mM phosphoric acid and once in methanol prior to drying and scintillation counting.

[4] = target: NEK11(h) (Homo sapiens, UniProt Q8NG66); details: read-out: percent residual activity of NEK11(h)
In short: (§3)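 First, substrates are dissolved and diluted to working stocks, mostly in de-ionized water; ATF2 is held as a 20× stock in 50 mM Tris pH 7.5, 150 mM NaCl, 0.1 mM EGTA, 0.03% Brij-35, 50% glycerol. Then each kinase is brought to a 10× working concentration in a kinase-specific diluent and added.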

[5] = target: CK1γ1(h) (Homo sapiens, UniProt Q9HCP0); details: read-out: percent residual activity of CK1γ1(h)
In short: as §3

[6] = target: MSSK1(h) (Homo sapiens, UniProt Q9UPE1); details: read-out: percent residual activity of MSSK1(h)
In short: as §3

[7] = target: Itk(h) (Homo sapiens, UniProt Q08881); details: read-out: percent residual activity of Itk(h)
In short: as §3

[8] = target: CaMKIIδ(h) (Homo sapiens, UniProt Q13557); details: read-out: percent residual activity of CaMKIIδ(h)
In short: as §3

[9] = target: SAPK2a(T106M)(h) (Homo sapiens, UniProt Q16539, T106M); details: read-out: percent residual activity of SAPK2a(T106M)(h)
In short: as §3

[10] = target: DYRK2(h) (Homo sapiens, UniProt Q92630); details: read-out: percent residual activity of DYRK2(h)
In short: as §3

[11] = target: LIMK1(h) (Homo sapiens, UniProt P53667); details: read-out: percent residual activity of LIMK1(h)
In short: as §3

[12] = target: PrKX(h) (Homo sapiens, UniProt P51817); details: read-out: percent residual activity of PrKX(h)
In short: as §3

[13] = target: Pim-2(h) (Homo sapiens, UniProt Q9P1W9); details: read-out: percent residual activity of Pim-2(h)
In short: as §3

[14] = target: HIPK1(h) (Homo sapiens, UniProt Q86Z02); details: read-out: percent residual activity of HIPK1(h)
In short: as §3

[15] = target: Blk(m) (Mus musculus, UniProt P16277); details: read-out: percent residual activity of Blk(m)
Description: as §1
In a final reaction volume of 25 μl, Blk (m) (5-10 mU) is incubated with 50 mM Tris pH 7.5, 0.1 mM EGTA, 0.1 mM Na3VO4, 0.1% R-mercaptoethanol, 0.1 mg/ml poly(Glu, Tyr) 4:1, 10 mM MgAcetate and [gamma-33P-ATP] (specific activity approx. 500 cpm/pmol, concentration as required). The reaction is initiated by the addition of the MgATP mix. After incubation for 40 minutes at room temperature, the reaction is stopped by the addition of 5 μl of a 3% phosphoric acid solution. […]

Chain of NEK11(h) (Q8NG66 whole entry): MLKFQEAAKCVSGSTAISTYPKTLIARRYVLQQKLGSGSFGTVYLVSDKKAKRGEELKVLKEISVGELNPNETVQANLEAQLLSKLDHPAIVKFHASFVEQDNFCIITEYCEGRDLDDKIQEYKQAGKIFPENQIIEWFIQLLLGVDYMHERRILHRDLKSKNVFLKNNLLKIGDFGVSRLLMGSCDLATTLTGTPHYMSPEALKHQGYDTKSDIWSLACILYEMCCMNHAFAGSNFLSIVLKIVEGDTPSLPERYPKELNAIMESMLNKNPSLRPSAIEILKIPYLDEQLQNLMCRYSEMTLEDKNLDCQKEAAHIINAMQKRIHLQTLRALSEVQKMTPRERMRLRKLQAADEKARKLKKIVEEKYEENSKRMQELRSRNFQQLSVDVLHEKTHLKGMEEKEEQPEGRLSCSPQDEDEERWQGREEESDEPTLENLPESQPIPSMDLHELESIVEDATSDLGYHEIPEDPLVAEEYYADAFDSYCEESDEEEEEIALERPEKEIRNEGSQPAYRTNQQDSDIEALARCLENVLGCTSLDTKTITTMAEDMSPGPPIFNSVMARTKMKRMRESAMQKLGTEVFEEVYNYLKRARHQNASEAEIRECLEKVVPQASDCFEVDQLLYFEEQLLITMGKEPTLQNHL
Chain of Itk(h) (Q08881 whole entry): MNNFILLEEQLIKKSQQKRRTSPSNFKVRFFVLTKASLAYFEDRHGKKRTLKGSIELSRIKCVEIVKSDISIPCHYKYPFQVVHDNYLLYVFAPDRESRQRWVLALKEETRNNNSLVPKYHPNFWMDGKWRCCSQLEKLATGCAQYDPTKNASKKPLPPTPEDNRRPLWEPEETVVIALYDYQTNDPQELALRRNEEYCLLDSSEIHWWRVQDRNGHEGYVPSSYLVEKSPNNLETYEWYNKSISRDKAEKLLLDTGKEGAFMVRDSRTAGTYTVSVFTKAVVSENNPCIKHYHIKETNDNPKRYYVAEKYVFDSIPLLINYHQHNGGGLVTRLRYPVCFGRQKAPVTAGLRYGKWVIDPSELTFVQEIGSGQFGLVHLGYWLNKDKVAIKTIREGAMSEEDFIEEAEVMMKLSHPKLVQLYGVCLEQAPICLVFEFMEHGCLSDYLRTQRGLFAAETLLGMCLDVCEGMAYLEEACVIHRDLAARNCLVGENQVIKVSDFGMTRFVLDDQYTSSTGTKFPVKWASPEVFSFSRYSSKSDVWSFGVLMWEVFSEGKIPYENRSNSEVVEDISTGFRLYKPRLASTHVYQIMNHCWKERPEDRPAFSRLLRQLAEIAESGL
Chain of HIPK1(h) (Q86Z02 whole entry): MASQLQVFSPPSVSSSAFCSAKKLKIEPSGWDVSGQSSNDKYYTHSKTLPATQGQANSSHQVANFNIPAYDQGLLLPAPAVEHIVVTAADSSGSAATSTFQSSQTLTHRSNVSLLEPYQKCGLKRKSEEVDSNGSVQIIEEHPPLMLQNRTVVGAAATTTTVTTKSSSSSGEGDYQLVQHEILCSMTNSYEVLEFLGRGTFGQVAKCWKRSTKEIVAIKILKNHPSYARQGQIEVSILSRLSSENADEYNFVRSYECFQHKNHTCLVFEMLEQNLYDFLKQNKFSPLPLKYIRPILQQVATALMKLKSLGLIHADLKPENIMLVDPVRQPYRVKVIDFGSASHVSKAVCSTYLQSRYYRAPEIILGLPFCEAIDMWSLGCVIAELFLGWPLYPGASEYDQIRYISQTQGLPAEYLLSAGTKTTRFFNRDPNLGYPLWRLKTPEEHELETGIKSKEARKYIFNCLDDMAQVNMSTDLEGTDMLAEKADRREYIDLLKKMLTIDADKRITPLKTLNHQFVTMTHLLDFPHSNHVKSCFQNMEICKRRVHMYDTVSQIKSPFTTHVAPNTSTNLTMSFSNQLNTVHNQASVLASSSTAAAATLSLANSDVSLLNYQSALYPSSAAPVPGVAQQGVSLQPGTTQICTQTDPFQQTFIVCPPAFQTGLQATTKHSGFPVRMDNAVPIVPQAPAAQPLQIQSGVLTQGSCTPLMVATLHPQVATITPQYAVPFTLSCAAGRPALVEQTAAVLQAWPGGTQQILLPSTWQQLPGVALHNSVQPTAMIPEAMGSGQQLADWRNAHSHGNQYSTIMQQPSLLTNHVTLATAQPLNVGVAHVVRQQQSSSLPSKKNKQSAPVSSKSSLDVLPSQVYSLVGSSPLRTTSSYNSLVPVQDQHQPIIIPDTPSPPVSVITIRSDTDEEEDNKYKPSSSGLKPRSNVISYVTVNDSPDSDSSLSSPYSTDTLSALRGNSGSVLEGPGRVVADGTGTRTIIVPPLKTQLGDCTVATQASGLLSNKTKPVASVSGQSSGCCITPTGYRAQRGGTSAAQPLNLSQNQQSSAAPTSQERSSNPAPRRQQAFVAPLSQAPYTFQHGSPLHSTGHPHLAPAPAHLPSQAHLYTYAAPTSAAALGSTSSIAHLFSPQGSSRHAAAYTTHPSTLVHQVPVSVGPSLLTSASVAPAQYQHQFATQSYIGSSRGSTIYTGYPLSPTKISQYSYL
Chain of PrKX(h) (P51817 whole entry): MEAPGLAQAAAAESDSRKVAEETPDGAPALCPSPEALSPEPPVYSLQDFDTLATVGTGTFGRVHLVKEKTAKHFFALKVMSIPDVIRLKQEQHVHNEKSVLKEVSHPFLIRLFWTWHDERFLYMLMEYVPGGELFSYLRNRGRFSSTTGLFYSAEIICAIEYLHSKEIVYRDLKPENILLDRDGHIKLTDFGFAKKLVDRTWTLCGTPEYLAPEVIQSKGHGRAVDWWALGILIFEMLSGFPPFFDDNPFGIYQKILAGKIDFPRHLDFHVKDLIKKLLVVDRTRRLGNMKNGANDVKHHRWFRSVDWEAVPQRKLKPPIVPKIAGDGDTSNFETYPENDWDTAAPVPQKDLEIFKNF
Chain of SAPK2a(T106M)(h) (Q16539 whole entry T106M): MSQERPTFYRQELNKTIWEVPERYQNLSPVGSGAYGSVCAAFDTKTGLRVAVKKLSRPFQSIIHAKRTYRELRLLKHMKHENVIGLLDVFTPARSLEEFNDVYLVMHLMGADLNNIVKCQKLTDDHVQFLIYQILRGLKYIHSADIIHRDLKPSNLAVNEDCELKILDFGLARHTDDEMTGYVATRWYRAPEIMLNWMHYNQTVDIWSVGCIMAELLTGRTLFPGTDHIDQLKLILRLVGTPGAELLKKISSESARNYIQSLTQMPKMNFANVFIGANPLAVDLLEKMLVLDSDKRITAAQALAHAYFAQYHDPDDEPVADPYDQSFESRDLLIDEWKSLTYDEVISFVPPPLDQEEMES
Chain of CK1γ1(h) (Q9HCP0 whole entry): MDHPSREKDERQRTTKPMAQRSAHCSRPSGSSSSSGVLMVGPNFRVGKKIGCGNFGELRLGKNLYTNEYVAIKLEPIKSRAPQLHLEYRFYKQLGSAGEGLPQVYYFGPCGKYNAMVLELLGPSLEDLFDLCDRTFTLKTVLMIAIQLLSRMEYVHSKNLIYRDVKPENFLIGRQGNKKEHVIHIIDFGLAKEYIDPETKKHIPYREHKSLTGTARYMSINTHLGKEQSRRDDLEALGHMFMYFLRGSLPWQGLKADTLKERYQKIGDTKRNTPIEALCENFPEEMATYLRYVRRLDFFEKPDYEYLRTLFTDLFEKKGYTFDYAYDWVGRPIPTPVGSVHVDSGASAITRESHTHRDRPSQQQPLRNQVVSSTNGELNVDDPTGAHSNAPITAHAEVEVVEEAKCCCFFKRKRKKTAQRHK
Chain of Pim-2(h) (Q9P1W9 whole entry): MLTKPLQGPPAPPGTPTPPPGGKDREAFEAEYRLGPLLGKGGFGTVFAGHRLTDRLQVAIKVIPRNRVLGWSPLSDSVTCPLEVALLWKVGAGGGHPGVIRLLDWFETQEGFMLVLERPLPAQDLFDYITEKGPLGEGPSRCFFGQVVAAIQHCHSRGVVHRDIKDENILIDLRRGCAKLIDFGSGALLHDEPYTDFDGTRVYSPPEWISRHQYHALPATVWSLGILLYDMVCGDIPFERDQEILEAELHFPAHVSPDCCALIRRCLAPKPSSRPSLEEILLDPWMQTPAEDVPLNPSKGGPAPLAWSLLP
Chain of DYRK2(h) (Q92630 whole entry): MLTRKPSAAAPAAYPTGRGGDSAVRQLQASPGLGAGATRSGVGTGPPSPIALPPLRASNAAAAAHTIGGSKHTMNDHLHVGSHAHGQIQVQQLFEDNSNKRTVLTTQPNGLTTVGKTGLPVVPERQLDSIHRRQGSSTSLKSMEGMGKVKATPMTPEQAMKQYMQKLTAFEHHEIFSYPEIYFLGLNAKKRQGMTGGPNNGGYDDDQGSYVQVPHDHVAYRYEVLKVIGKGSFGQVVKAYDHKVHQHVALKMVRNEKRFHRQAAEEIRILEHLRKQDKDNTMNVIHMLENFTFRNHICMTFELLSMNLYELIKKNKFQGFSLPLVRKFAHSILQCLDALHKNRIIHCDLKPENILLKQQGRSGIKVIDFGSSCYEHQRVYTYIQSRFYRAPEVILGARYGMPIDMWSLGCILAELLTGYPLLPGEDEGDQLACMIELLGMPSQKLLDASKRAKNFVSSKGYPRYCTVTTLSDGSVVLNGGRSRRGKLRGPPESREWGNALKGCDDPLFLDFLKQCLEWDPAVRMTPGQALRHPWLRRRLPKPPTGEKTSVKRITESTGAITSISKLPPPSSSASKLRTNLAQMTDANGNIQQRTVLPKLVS
Chain of Blk(m) (P16277 whole entry): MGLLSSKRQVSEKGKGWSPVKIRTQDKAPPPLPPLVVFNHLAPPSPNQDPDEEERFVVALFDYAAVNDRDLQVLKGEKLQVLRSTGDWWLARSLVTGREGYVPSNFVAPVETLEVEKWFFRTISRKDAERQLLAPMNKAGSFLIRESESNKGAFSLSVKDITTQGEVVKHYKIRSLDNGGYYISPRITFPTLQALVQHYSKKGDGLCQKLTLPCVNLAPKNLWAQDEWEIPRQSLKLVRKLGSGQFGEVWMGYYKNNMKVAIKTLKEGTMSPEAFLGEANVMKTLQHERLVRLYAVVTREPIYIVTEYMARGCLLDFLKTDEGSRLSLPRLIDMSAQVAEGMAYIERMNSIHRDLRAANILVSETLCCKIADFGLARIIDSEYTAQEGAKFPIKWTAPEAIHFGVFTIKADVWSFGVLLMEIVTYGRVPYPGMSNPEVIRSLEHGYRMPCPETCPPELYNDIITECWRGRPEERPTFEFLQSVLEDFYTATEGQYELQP

remaining activity at 2.5 µM [1] [%] | remaining activity at 2.5 µM [2] [%] | remaining activity at 2.5 µM [3] [%] | remaining activity at 2.5 µM [4] [%] | remaining activity at 2.5 µM [5] [%] | remaining activity at 2.5 µM [6] [%] | remaining activity at 2.5 µM [7] [%] | remaining activity at 2.5 µM [8] [%] | remaining activity at 2.5 µM [9] [%] | remaining activity at 2.5 µM [10] [%] | remaining activity at 2.5 µM [11] [%] | remaining activity at 2.5 µM [12] [%] | remaining activity at 2.5 µM [13] [%] | remaining activity at 2.5 µM [14] [%] | remaining activity at 2.5 µM [15] [%] | Compound
115 | 103 | 95 | 107 | 100 | 107 | 102 | 96 | 99 | 75 | 100 | 96 | 110 | 101 | 106 | CC(=O)N1CCN(c2ccc3c(=O)c(C(=O)NCCN4CCCC4)c4n(C)c5ccccc5n4c3n2)CC1 [Compound B-1]
132 | 97 | 71 | 70 | 90 | 41 | 117 | 88 | 94 | 70 | 97 | 75 | 77 | 95 | 117 | CN1CCCC1CCNC(=O)c1cn2c3c(c(N4CCC(c5cnccn5)C4)c(F)cc3c1=O)Oc1cc3ccccc3cc1-2 (stereo not drawn) [Compound A-1]
